# Laboratory results reported in US11999746B2, “Compounds” (GlaxoSmithKline Intellectual Property Development Limited, priority 2014, dated 2024).
# Counter-ions that a name gives are not always drawn.
# Tests used:
# [1] = target: T1, recombinant human Lp-PLA2 (Homo sapiens, UniProt Q13093); assay: (1b) hrThioPAF assay, recombinant human Lp-PLA2; format: biochemical; conditions: Examples 266-412 were tested here, one experiment or average of multiple experiments, read-out: rhLp-PLA2 (pIC50) (converted)
# T1 sequence (Q13093 22-441): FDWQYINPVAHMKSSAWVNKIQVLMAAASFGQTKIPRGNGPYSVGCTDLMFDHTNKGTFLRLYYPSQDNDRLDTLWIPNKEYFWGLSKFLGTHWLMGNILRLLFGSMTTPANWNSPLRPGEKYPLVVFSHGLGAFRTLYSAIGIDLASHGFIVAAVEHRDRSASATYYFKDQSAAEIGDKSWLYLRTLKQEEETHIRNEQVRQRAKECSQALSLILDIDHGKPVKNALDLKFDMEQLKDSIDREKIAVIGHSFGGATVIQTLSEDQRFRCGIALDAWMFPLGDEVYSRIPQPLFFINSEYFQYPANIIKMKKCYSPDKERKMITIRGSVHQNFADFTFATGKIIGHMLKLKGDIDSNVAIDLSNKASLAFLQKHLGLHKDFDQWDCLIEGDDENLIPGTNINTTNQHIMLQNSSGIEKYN
# Method in brief: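 Fluorogenic assay: 20 pM rhLp-PLA2 in 50 mM HEPES pH 7.4, 150 mM NaCl, 1 mM CHAPS with 1:3 serially diluted compounds; substrate mix of 40 μM 2-thio-PAF, 40 μM CPM, 400 μM NEM (pre-addition levels). 20 min at 25 °C in the dark; fluorescence ex 380/em 485 nm, pIC50 by curve fitting.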
# Lp-PLA2 in human plasma = target: T2, Lp-PLA2 in human plasma (Homo sapiens, UniProt Q13093); assay: (3b) Lp-PLA2 human plasma alternative Thio-PAF assay; format: biochemical; conditions: (3b) alternative Thio-PAF assay, pooled human plasma; Examples of 266-412 were tested here; read-out: pIC50 in the Lp-PLA2 human plasma assay (converted)
# T2 construct: from tissue; host or cells: pooled human plasma
# T2 sequence (Q13093 22-441): T1 sequence (Q13093 22-441)
# Experimental: (3b) Alternative Thio-PAF Assay
# The human plasma assay utilizes the same thioester analog of PAF as described in (1b) “hr ThioPAF” assay. This assay may detect the activity of Lp-PLA2 in human plasma, as determined by specific inhibition by Lp-PLA2 inhibitors.
# The thio-PAF assay was run as a quenched 20 μL assay. Compounds source plate was prepared by making 1:3 (by volume) serial dilution of the compounds into pure DMSO on 96-well microplate. 5 μL of compounds on compound source plate were transferred to 96-well Corning 3686 (black) low-volume plates by STAR+(Hamilton) liquid dispenser. 10 μL pooled human plasma, which was previously aliquoted and frozen, was added. Plates were centrifuged for 30 sec at 1000 rpm. After 15 minutes preincubation at room temperature, 5 μL of substrate solution comprising 2 mM 2-thio-PAF [from ethanol stock], 52 μM CPM [from a DMSO stock] and 2.5 mM NEM (N-ethylmaleimide) [made fresh daily in DMSO] in assay buffer (50 mM HEPES, pH 7.4, 150 mM NaCl, 1 mM CHAPS) was added to 96-well Corning 3686 (black) low-volume plates. After 3 mins, reaction was quenched with 10 μL of 5% aqueous trifluoroacetic acid (TFA). Plates were centrifuged 30 sec at 1000 rpm, covered to protect from light and incubated for 10 min at room temperature. Plates were read at ex: 380 nm/em: 485 nm using Envision plate reader (Perkin Elmer). Raw data were transferred to Excel software and pIC50 data, curve and QC analysis was conducted by using XL fit module in Excel.
SMILES,IC50 [1],IC50 (Lp-PLA2 in human plasma)
"Cc1ccc(Oc2c(F)cc(COc3cc4n(c(=O)n3)CC3CNCCN43)cc2F)cn1 (stereo not shown) [Example E279, 7-((3,5-Difluoro-4-((6-methylpyridin-3-yl)oxy)benzyl)oxy)-3,4,11,11a-tetrahydro-1H-pyrazino[1′,2′:3,4] imidazo [1,2-c]pyrimidin-9(2H)-one]",≤ 10 µM,≤ 0.1 µM
"CCN1CCN2c3cc(OCc4ccc(F)c(C#N)c4)nc(=O)n3CC2C1 (stereo not shown) [Example E280, 5-(((2-Ethyl-9-oxo-2,3,4,9,11,11a-hexahydro-1H-pyrazino[1′,2′:3,4]imidazo[1,2-c]pyrimidin-7-yl)oxy)methyl)-2-fluorobenzonitrile]",≤ 10 µM,≤ 0.1 µM
"CC(=O)N1CCN2c3cc(OCc4ccc(F)c(C#N)c4)nc(=O)n3CC2C1 (stereo not shown) [Example E281, 5-(((2-Acetyl-9-oxo-2,3,4,9,11,11a-hexahydro-1H-pyrazino[1′,2′:3,4]imidazo[1,2-c]pyrimidin-7-yl)oxy)methyl)-2-fluorobenzonitrile, trifluoroacetic Acid Salt]",≤ 10 µM,≤ 0.1 µM
"CCS(=O)(=O)N1CCN2c3cc(OCc4ccc(F)c(C#N)c4)nc(=O)n3CC2C1 (stereo not shown) [Example E283, 5-(((2-(Ethylsulfonyl)-9-oxo-2,3,4,9,11,11a-hexahydro-1H-pyrazino[1,2′:3,4]imidazo[1,2-c]pyrimidin-7-yl)oxy)methyl)-2-fluorobenzonitrile]",≤ 10 µM,≤ 0.1 µM
"CN(C)CC(=O)N1CCN2c3cc(OCc4ccc(F)c(C#N)c4)nc(=O)n3CC2C1 (stereo not shown) [Example E284, 5-(((2-(2-(Dimethylamino)acetyl)-9-oxo-2,3,4,9,11,11a-hexahydro-1H-pyrazino[1,2′:3,4]imidazo[1,2-c]pyrimidin-7-yl)oxy)methyl)-2-fluorobenzonitrile]",≤ 10 µM,≤ 0.1 µM
"[2H]C1([2H])C2CN(C(C)=O)CCN2c2cc(OCc3ccc(F)c(C#N)c3)nc(=O)n21 (stereo not shown) [Example E285, 5-(((2-Acetyl-11,11-dideutero-9-oxo-2,3,4,9,11,11a-hexahydro-1H-pyrazino[1′,2′:3,4]imidazo[1,2-c]pyrimidin-7-yl)oxy)methyl)-2-fluorobenzonitrile]",≤ 10 µM,≤ 0.1 µM
"CS(=O)(=O)N1CCN2c3cc(OCc4ccc(F)c(C#N)c4)nc(=O)n3CC2C1 (stereo not shown) [Example E286, 2-Fluoro-5-(((2-(methylsulfonyl)-9-oxo-2,3,4,9,11,11a-hexahydro-1H-pyrazino[1′,2′:3,4]imidazo[1,2-c]pyrimidin-7-yl)oxy)methyl)benzonitrile hydrochloride]",≤ 10 µM,≤ 0.1 µM
"[2H]C1([2H])C2CN(S(C)(=O)=O)CCN2c2cc(OCc3ccc(F)c(C#N)c3)nc(=O)n21 (stereo not shown) [Example E287, 5-(((11,11-Dideutero-2-(methylsulfonyl)-9-oxo-2,3,4,9,11,11a-hexahydro-1H-pyrazino[1′,2′:3,4]imidazo[1,2-c]pyrimidin-7-yl)oxy)methyl)-2-fluorobenzonitrile]",≤ 10 µM,≤ 0.1 µM
"N#Cc1cc(COc2cc3n(c(=O)n2)CC2CN(C(=O)CCN)CCN32)ccc1F (stereo not shown) [Example E288, 5-(((2-(3-Aminopropanoyl)-9-oxo-2,3,4,9,11,11a-hexahydro-1H-pyrazino[1′,2′:3,4]imidazo[1,2-c]pyrimidin-7-yl)oxy)methyl)-2-fluorobenzonitrile]",≤ 10 µM,≤ 0.1 µM
"CCC(=O)N1CCN2c3cc(OCc4ccc(F)c(C#N)c4)nc(=O)n3CC2C1 (stereo not shown) [Example E289, 2-Fluoro-5-(((9-oxo-2-propionyl-2,3,4,9,11,11a-hexahydro-1H-pyrazino[1′,2′:3,4]imidazo[1,2-c]pyrimidin-7-yl)oxy)methyl)benzonitrile 2,2,2-trifluoroacetate]",≤ 10 µM,≤ 0.1 µM
"CC(C)C(=O)N1CCN2c3cc(OCc4ccc(F)c(C#N)c4)nc(=O)n3CC2C1 (stereo not shown) [Example E290, 2-Fluoro-5-(((2-isobutyryl-9-oxo-2,3,4,9,11,11a-hexahydro-1H-pyrazino[1′,2′:3,4]imidazo[1,2-c]pyrimidin-7-yl)oxy)methyl)benzonitrile 2,2,2-trifluoroacetate]",≤ 10 µM,≤ 0.1 µM
"CCCC(=O)N1CCN2c3cc(OCc4ccc(F)c(C#N)c4)nc(=O)n3CC2C1 (stereo not shown) [Example E291, 5-(((2-Butyryl-9-oxo-2,3,4,9,11,11a-hexahydro-1H-pyrazino[1′,2′:3,4]imidazo[1,2-c]pyrimidin-7-yl)oxy)methyl)-2-fluorobenzonitrile 2,2,2-trifluoroacetate]",≤ 10 µM,≤ 0.1 µM
"N#Cc1cc(COc2cc3n(c(=O)n2)CC2CN(C(=O)C4CC4)CCN32)ccc1F (stereo not shown) [Example E292, 5-(((2-(cyclopropanecarbonyl)-9-oxo-2,3,4,9,11,11a-hexahydro-1H-pyrazino[1′,2′:3,4]imidazo[1,2-c]pyrimidin-7-yl)oxy)methyl)-2-fluorobenzonitrile 2,2,2-trifluoroacetate]",≤ 10 µM,≤ 0.1 µM

# Next, values leading:
IC50 [1],IC50 (Lp-PLA2 in human plasma),SMILES
≤ 10 µM,≤ 0.1 µM,"CC(C)CC(=O)N1CCN2c3cc(OCc4ccc(F)c(C#N)c4)nc(=O)n3CC2C1 (stereo not shown) [Example E293, 2-Fluoro-5-(((2-(3-methylbutanoyl)-9-oxo-2,3,4,9,11,11a-hexahydro-1H pyrazino[1′,2′:3,4]imidazo[1,2-c]pyrimidin-7-yl)oxy)methyl)benzonitrile]"
≤ 10 µM,≤ 0.1 µM,"CC(C)(C)C(=O)N1CCN2c3cc(OCc4ccc(F)c(C#N)c4)nc(=O)n3CC2C1 (stereo not shown) [Example E294, 2-Fluoro-5-(((9-oxo-2-pivaloyl-2,3,4,9,11,11a-hexahydro-1H-pyrazino[1′,2′:3,4]imidazo[1,2-c]pyrimidin-7-yl)oxy)methyl)benzonitrile 2,2,2-trifluoroacetate]"
≤ 10 µM,≤ 0.1 µM,"CC(C)S(=O)(=O)N1CCN2c3cc(OCc4ccc(F)c(C#N)c4)nc(=O)n3CC2C1 (stereo not shown) [Example E295, 2-Fluoro-5-(((2-(isopropylsulfonyl)-9-oxo-2,3,4,9,11,11a-hexahydro-1H-pyrazino[1′,2′:3,4]imidazo[1,2-c]pyrimidin-7-yl)oxy)methyl)benzonitrile 2,2,2-trifluoroacetate]"
≤ 10 µM,≤ 0.1 µM,"N#Cc1cc(COc2cc3n(c(=O)n2)CC2CN(S(=O)(=O)C4CC4)CCN32)ccc1F (stereo not shown) [Example E296, 5-(((2-(Cyclopropylsulfonyl)-9-oxo-2,3,4,9,11,11a-hexahydro-1H-pyrazino[1′,2′:3,4]imidazo[1,2-c]pyrimidin-7-yl)oxy)methyl)-2-fluorobenzonitrile 2,2,2-trifluoroacetate]"
≤ 10 µM,≤ 0.1 µM,"N#Cc1cc(COc2cc3n(c(=O)n2)CC2CN(C(=O)C4(N)CC4)CCN32)ccc1F (stereo not shown) [Example E297, 5-(((2-(1-Aminocyclopropanecarbonyl)-9-oxo-2,3,4,9,11,11a-hexahydro-1H-pyrazino[1′,2′:3,4]imidazo[1,2-c]pyrimidin-7-yl)oxy)methyl)-2-fluorobenzonitrile 2,2,2-trifluoroacetate]"
≤ 10 µM,≤ 0.1 µM,"CC(C)(N)CC(=O)N1CCN2c3cc(OCc4ccc(F)c(C#N)c4)nc(=O)n3CC2C1 (stereo not shown) [Example E298, 5-(((2-(3-Amino-3-methylbutanoyl)-9-oxo-2,3,4,9,11,11a-hexahydro-1H-pyrazino[1′,2′:3,4]imidazo[1,2-c]pyrimidin-7-yl)oxy)methyl)-2-fluorobenzonitrile 2,2,2-trifluoroacetate]"
≤ 10 µM,≤ 0.1 µM,"CC(=O)N1CCN2c3cc(OCc4cc(F)c(Oc5ccc(C)nc5)c(F)c4)nc(=O)n3CC2C1 (stereo not shown) [Example E299, 2-Acetyl-7-((3,5-difluoro-4-((6-methylpyridin-3-yl)oxy)benzyl)oxy)-3,4,11,11a-tetrahydro-1H-pyrazino[1′,2′:3,4]imidazo[1,2-c]pyrimidin-9(2H)-one]"
